According to paper PMC12667739 (ACS infectious diseases, 2025):

Experiments:
[1] = target: T1, ComD (Streptococcus gordonii, UniProt O33646); assay: cell-based
[2] = target: T1, ComD; assay: cell-based; remark: listed apart in the source

Work on `CC[C@H](C)[C@H](NC(=O)[C@H](CCCNC(=N)N)NC(=O)[C@H](C)NC(=O)[C@H](CCCNC(=N)N)NC(=O)[C@@H](NC(=O)[C@@H](N)CC(=O)O)[C@@H](C)CC)C(=O)N[C@@H](CC(N)=O)C(=O)N[C@@H](CC(N)=O)C(=O)N[C@@H](CO)C(=O)N[C@H](C(=O)N[C@@H](Cc1c[nH]c2ccccc12)C(=O)N[C@@H](CCCNC(=N)N)C(=O)N[C@@H](CC(=O)O)C(=O)N[C@H](C(=O)N[C@@H](Cc1ccccc1)C(=O)N[C@@H](CC(C)C)C(=O)N[C@@H](CCCCN)C(=O)N[C@@H](CCCNC(=N)N)C(=O)N[C@@H](CCCCN)C(=O)O)[C@@H](C)CC)[C@@H](C)CC` [Peptide H4A] yielded an EC50 [1] of 722 nM.

Work on `CC[C@H](C)[C@H](NC(=O)[C@H](CC(=O)O)NC(=O)[C@H](CCCNC(=N)N)NC(=O)[C@H](Cc1c[nH]c2ccccc12)NC(=O)[C@@H](NC(=O)[C@H](CO)NC(=O)[C@H](CC(N)=O)NC(=O)[C@H](CC(N)=O)NC(=O)[C@@H](NC(=O)[C@H](CCCNC(=N)N)NC(=O)[C@H](Cc1c[nH]cn1)NC(=O)[C@H](CCCNC(=N)N)NC(=O)[C@@H](NC(=O)[C@@H](N)CC(=O)O)[C@@H](C)CC)[C@@H](C)CC)[C@@H](C)CC)C(=O)N[C@@H](Cc1ccccc1)C(=O)N[C@@H](CC(C)C)C(=O)N[C@@H](C)C(=O)N[C@@H](CCCNC(=N)N)C(=O)N[C@@H](CCCCN)C(=O)O` [Peptide K17A] yielded an EC50 [1] of 426 nM.

`CC[C@H](C)[C@H](NC(=O)[C@H](CC(=O)O)NC(=O)[C@H](CCCNC(=N)N)NC(=O)[C@H](Cc1c[nH]c2ccccc12)NC(=O)[C@@H](NC(=O)[C@H](CO)NC(=O)[C@H](CC(N)=O)NC(=O)[C@H](CC(N)=O)NC(=O)[C@@H](NC(=O)[C@H](CCCNC(=N)N)NC(=O)[C@H](Cc1c[nH]cn1)NC(=O)[C@H](CCCNC(=N)N)NC(=O)[C@@H](NC(=O)[C@@H](N)CC(=O)O)[C@@H](C)CC)[C@@H](C)CC)[C@@H](C)CC)C(=O)N[C@@H](Cc1ccccc1)C(=O)N[C@@H](CC(C)C)C(=O)N[C@@H](CCCCN)C(=O)N[C@@H](CCCNC(=N)N)C(=O)N[C@@H](C)C(=O)O` [Peptide K19A] showed an EC50 [1] of 272 nM.

Compound `CC[C@H](C)[C@H](NC(=O)[C@H](CC(=O)O)NC(=O)[C@H](CCCNC(=N)N)NC(=O)[C@H](Cc1c[nH]c2ccccc12)NC(=O)[C@@H](NC(=O)[C@H](CO)NC(=O)[C@H](CC(N)=O)NC(=O)[C@H](CC(N)=O)NC(=O)[C@@H](NC(=O)[C@H](CCCNC(=N)N)NC(=O)[C@H](Cc1c[nH]cn1)NC(=O)[C@H](CCCNC(=N)N)NC(=O)[C@@H](NC(=O)[C@@H](N)CC(=O)O)[C@@H](C)CC)[C@@H](C)CC)[C@@H](C)CC)C(=O)N[C@@H](Cc1ccccc1)C(=O)N[C@@H](C)C(=O)N[C@@H](CCCCN)C(=O)N[C@@H](CCCNC(=N)N)C(=O)N[C@@H](CCCCN)C(=O)O` [Peptide L16A] has an EC50 [1] of 127 nM.

Work on `CC[C@H](C)[C@H](NC(=O)[C@H](CCCNC(=N)N)NC(=O)[C@H](Cc1c[nH]cn1)NC(=O)[C@H](CCCNC(=N)N)NC(=O)[C@@H](NC(=O)[C@@H](N)CC(=O)O)[C@@H](C)CC)C(=O)N[C@@H](C)C(=O)N[C@@H](CC(N)=O)C(=O)N[C@@H](CO)C(=O)N[C@H](C(=O)N[C@@H](Cc1c[nH]c2ccccc12)C(=O)N[C@@H](CCCNC(=N)N)C(=O)N[C@@H](CC(=O)O)C(=O)N[C@H](C(=O)N[C@@H](Cc1ccccc1)C(=O)N[C@@H](CC(C)C)C(=O)N[C@@H](CCCCN)C(=O)N[C@@H](CCCNC(=N)N)C(=O)N[C@@H](CCCCN)C(=O)O)[C@@H](C)CC)[C@@H](C)CC` [Peptide N7A] yielded an EC50 [1] of 203 nM.

Compound `CC[C@H](C)[C@H](NC(=O)[C@H](CCCNC(=N)N)NC(=O)[C@H](Cc1c[nH]cn1)NC(=O)[C@H](CCCNC(=N)N)NC(=O)[C@@H](NC(=O)[C@@H](N)CC(=O)O)[C@@H](C)CC)C(=O)N[C@@H](CC(N)=O)C(=O)N[C@@H](C)C(=O)N[C@@H](CO)C(=O)N[C@H](C(=O)N[C@@H](Cc1c[nH]c2ccccc12)C(=O)N[C@@H](CCCNC(=N)N)C(=O)N[C@@H](CC(=O)O)C(=O)N[C@H](C(=O)N[C@@H](Cc1ccccc1)C(=O)N[C@@H](CC(C)C)C(=O)N[C@@H](CCCCN)C(=O)N[C@@H](CCCNC(=N)N)C(=O)N[C@@H](CCCCN)C(=O)O)[C@@H](C)CC)[C@@H](C)CC` [Peptide N8A] has an EC50 [1] of 692 nM.

Work on `CC[C@H](C)[C@H](NC(=O)[C@H](CO)NC(=O)[C@H](CC(N)=O)NC(=O)[C@H](CC(N)=O)NC(=O)[C@@H](NC(=O)[C@H](CCCNC(=N)N)NC(=O)[C@H](Cc1c[nH]cn1)NC(=O)[C@H](CCCNC(=N)N)NC(=O)[C@@H](NC(=O)[C@@H](N)CC(=O)O)[C@@H](C)CC)[C@@H](C)CC)C(=O)N[C@@H](Cc1c[nH]c2ccccc12)C(=O)N[C@@H](C)C(=O)N[C@@H](CC(=O)O)C(=O)N[C@H](C(=O)N[C@@H](Cc1ccccc1)C(=O)N[C@@H](CC(C)C)C(=O)N[C@@H](CCCCN)C(=O)N[C@@H](CCCNC(=N)N)C(=O)N[C@@H](CCCCN)C(=O)O)[C@@H](C)CC` [Peptide R12A] yielded an EC50 [1] of 127 nM.

With `CC[C@H](C)[C@H](NC(=O)[C@H](CC(=O)O)NC(=O)[C@H](CCCNC(=N)N)NC(=O)[C@H](Cc1c[nH]c2ccccc12)NC(=O)[C@@H](NC(=O)[C@H](CO)NC(=O)[C@H](CC(N)=O)NC(=O)[C@H](CC(N)=O)NC(=O)[C@@H](NC(=O)[C@H](CCCNC(=N)N)NC(=O)[C@H](Cc1c[nH]cn1)NC(=O)[C@H](CCCNC(=N)N)NC(=O)[C@@H](NC(=O)[C@@H](N)CC(=O)O)[C@@H](C)CC)[C@@H](C)CC)[C@@H](C)CC)C(=O)N[C@@H](Cc1ccccc1)C(=O)N[C@@H](CC(C)C)C(=O)N[C@@H](CCCCN)C(=O)N[C@@H](C)C(=O)N[C@@H](CCCCN)C(=O)O` [Peptide R18A] the EC50 [1] was 406 nM.

For `CC[C@H](C)[C@H](N)C(=O)N[C@@H](CCCNC(=N)N)C(=O)N[C@@H](Cc1c[nH]cn1)C(=O)N[C@@H](CCCNC(=N)N)C(=O)N[C@H](C(=O)N[C@@H](CC(N)=O)C(=O)N[C@@H](CC(N)=O)C(=O)N[C@@H](CO)C(=O)N[C@H](C(=O)N[C@@H](Cc1c[nH]c2ccccc12)C(=O)N[C@@H](CCCNC(=N)N)C(=O)N[C@@H](CC(=O)O)C(=O)N[C@H](C(=O)N[C@@H](Cc1ccccc1)C(=O)N[C@@H](CC(C)C)C(=O)N[C@@H](CCCCN)C(=O)N[C@@H](CCCNC(=N)N)C(=O)N[C@@H](CCCCN)C(=O)O)[C@@H](C)CC)[C@@H](C)CC)[C@@H](C)CC` [desD1], the IC50 [2] was 985 nM.

With `CC[C@H](C)[C@H](NC(=O)[C@H](CC(=O)O)NC(=O)[C@H](CCCNC(=N)N)NC(=O)[C@H](Cc1c[nH]c2ccccc12)NC(=O)[C@@H](NC(=O)[C@H](CO)NC(=O)[C@H](CC(N)=O)NC(=O)[C@H](CC(N)=O)NC(=O)[C@@H](NC(=O)[C@H](CCCNC(=N)N)NC(=O)[C@H](Cc1c[nH]cn1)NC(=O)[C@H](CCCNC(=N)N)NC(=O)[C@@H](NC(=O)[C@@H](N)CC(=O)O)[C@@H](C)CC)[C@@H](C)CC)[C@@H](C)CC)C(=O)N[C@@H](Cc1ccccc1)C(=O)N[C@@H](CC(C)C)C(=O)N[C@@H](CCCCN)C(=O)N[C@@H](CCCNC(=N)N)C(=O)O` [desK19] the EC50 [1] was 309 nM.
